Experiments:
[1] = biological target: Coagulation factor VII/tissue factor (Homo sapiens, UniProt P08709); test: Inhibitory concentration against human coagulation factor VIIa/tissue factor cleavage of fluorogenic substrate SN17c at 37 degree C for 15 minutes; format: protein-complex assay
[2] = In vitro inhibitory activity against prolonging prothrombin time as anticoagulant effect on extrinsic coagulation pathway; format: functional; settings: Homo sapiens
Coagulation factor X = Coagulation factor X (Homo sapiens, UniProt P00742); test: Inhibitory concentration against human coagulation factor Xa
Chain of Coagulation factor X (P00742 41-179 limits assumed): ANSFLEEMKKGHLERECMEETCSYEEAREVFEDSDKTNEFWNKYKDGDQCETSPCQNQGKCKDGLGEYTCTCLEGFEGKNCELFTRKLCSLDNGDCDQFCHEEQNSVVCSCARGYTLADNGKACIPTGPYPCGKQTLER
Chain of Coagulation factor X (P00742 235-488 limits assumed): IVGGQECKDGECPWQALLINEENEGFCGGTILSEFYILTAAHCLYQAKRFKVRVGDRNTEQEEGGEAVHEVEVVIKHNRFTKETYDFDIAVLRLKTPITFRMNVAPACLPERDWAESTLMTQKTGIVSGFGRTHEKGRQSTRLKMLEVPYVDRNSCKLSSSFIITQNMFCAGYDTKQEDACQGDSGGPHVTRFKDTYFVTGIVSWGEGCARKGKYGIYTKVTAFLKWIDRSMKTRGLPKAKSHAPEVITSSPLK

Chain of Coagulation factor VII/tissue factor (P08709 61-212 limits assumed): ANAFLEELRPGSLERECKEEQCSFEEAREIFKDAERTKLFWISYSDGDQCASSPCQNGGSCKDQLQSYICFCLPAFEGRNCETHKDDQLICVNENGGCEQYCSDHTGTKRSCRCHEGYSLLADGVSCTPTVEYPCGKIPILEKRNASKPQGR
Chain of Coagulation factor VII/tissue factor (P08709 213-466 limits assumed): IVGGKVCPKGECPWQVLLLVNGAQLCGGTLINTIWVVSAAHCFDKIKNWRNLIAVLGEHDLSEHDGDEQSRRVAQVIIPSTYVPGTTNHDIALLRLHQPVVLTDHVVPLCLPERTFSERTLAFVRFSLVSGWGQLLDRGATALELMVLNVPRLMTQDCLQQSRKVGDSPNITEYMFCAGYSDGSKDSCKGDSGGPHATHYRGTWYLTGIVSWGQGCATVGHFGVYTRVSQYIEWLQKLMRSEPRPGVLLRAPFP
Chain of Coagulation factor VII/tissue factor (P13726 33-295 partner limits assumed): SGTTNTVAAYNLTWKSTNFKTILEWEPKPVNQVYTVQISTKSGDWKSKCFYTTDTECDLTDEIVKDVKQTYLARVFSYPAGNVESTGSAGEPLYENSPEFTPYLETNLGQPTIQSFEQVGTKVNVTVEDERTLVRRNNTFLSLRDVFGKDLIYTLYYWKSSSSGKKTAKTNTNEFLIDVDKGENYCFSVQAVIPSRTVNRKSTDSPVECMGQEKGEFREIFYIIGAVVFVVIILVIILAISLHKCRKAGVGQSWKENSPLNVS

Row | Compound | IC50 [1] [nM] | Concentration prolonging prothrombin time [2] [µM] | IC50 (Coagulation factor X) [nM]
1 | Cc1c(F)c(Oc2cccc(C(=N)N)c2)nc(Oc2ccc(N(C)C)cc2C(=O)O)c1F | 190 |  | 
2 | CCOc1ccc(Oc2nc(Oc3cccc(C(=N)N)c3)c(F)c(NC(C)CCc3ccccc3)c2F)c(C(=O)O)c1 (stereo unspecified) | 29 | 94 | 17000
3 | CC(CCc1ccccc1)Nc1c(F)c(Oc2cccc(C(=N)N)c2)nc(Oc2ccc(C(=O)NC(C)(C)CO)cc2C(=O)O)c1F (stereo unspecified) | 16 | 11 | 59000
4 | Cc1c(F)c(Oc2cccc(C(=N)N)c2)nc(Oc2ccccc2C(=O)O)c1F | 1200 |  | < 10000
5 | CC(CCc1ccccc1)Nc1c(F)c(Oc2cccc(C(=N)N)c2)nc(Oc2ccc(C(=O)NCc3ccc(O)c(O)c3)cc2C(=O)O)c1F (stereo unspecified) | 140 |  | 
6 | CC(CCc1ccccc1)Nc1c(F)c(Oc2cccc(C(=N)N)c2)nc(Oc2ccc(C(=O)NCCCO)cc2C(=O)O)c1F (stereo unspecified) | 71 | 12 | 
7 | CC(CCc1ccccc1)Nc1c(F)c(Oc2cccc(C(=N)N)c2)nc(Oc2ccc(N(C)C)cc2C(=O)O)c1F (stereo in doubt; 19) [listing 1 of 2 here] | 13 |  | 6800
8 | CC(CCc1ccccc1)Nc1c(F)c(Oc2cccc(C(=N)N)c2)nc(Oc2ccc(N(C)C)cc2C(=O)O)c1F (stereo in doubt; 28) [listing 1 of 2 here] |  | 16 | 
9 | CC(CCc1ccccc1)Nc1c(F)c(Oc2cccc(C(=N)N)c2)nc(Oc2ccc(C(=O)NC(C)C(C)(C)C)cc2C(=O)O)c1F (stereo unspecified) | 14 | 15 | 4300
10 | CC(CCc1ccccc1)Nc1c(F)c(Oc2cccc(C(=N)N)c2)nc(Oc2ccc(C(=O)NCc3cccc(O)c3)cc2C(=O)O)c1F (stereo unspecified) | 39 | 49 | 4100
11 | COc1cccc(CNC(=O)c2ccc(Oc3nc(Oc4cccc(C(=N)N)c4)c(F)c(NC(C)CCc4ccccc4)c3F)c(C(=O)O)c2)c1 (stereo unspecified) | 8 | 53 | 9500
12 | CC(CCc1ccccc1)Nc1c(F)c(Oc2cccc(C(=N)N)c2)nc(Oc2ccc(C(C)C)cc2C(=O)O)c1F (stereo unspecified) | 15 | 28 | 4800
13 | CCC(CO)NC(=O)c1ccc(Oc2nc(Oc3cccc(C(=N)N)c3)c(F)c(NC(C)CCc3ccccc3)c2F)c(C(=O)O)c1 (stereo unspecified) | 23 | 10 | 5700
14 | CCCCN(CCCC)c1ccc(Oc2nc(Oc3cccc(C(=N)N)c3)c(F)c(NC(C)CCc3ccccc3)c2F)c(C(=O)O)c1 (stereo unspecified) | 36 |  | 
15 | CC(CCc1ccccc1)Nc1c(F)c(Oc2cccc(C(=N)N)c2)nc(Oc2ccc(C(C)(C)C)cc2C(=O)O)c1F (stereo unspecified) | 21 | 24 | 3300
16 | C[C@H](CCc1ccccc1)Nc1c(F)c(Oc2cccc(C(=N)N)c2)nc(Oc2ccccc2C(=O)O)c1F | 45 | 29 | 51000
17 | CC(C)CNC(=O)c1ccc(Oc2nc(Oc3cccc(C(=N)N)c3)c(F)c(NC(C)CCc3ccccc3)c2F)c(C(=O)O)c1 (stereo unspecified) | 10 | 22 | 9600

Row | Compound | IC50 [1] [nM] | Concentration prolonging prothrombin time [2] [µM] | IC50 (Coagulation factor X) [nM]
18 | CC(CCc1ccccc1)Nc1c(F)c(Oc2cccc(C(=N)N)c2)nc(Oc2ccc(C(=O)NC(CO)CO)cc2C(=O)O)c1F (stereo unspecified) | 46 | 9 | 13000
19 | COc1ccc(Oc2nc(Oc3cccc(C(=N)N)c3)c(F)c(NC(C)CCc3ccccc3)c2F)c(C(=O)O)c1 (stereo unspecified) | 39 |  | 11000
20 | CCCOc1ccc(Oc2nc(Oc3cccc(C(=N)N)c3)c(F)c(NC(C)CCc3ccccc3)c2F)c(C(=O)O)c1 (stereo unspecified) | 19 | 95 | 26000
21 | CC(CCc1ccccc1)Nc1c(F)c(Oc2cccc(C(=N)N)c2)nc(Oc2ccc(O)cc2C(=O)O)c1F (stereo unspecified) | 560 |  | 11000
22 | CC(CCc1ccccc1)Nc1c(F)c(Oc2cccc(C(=N)N)c2)nc(Oc2ccc(N)cc2C(=O)O)c1F (stereo unspecified) | 79 |  | 11000
23 | CC(CCc1ccccc1)Nc1c(F)c(Oc2cccc(C(=N)N)c2)nc(Oc2ccc(C(=O)O)cc2C(=O)O)c1F (stereo unspecified) | 200 |  | 
24 | CC(CCc1ccccc1)Nc1c(F)c(Oc2cccc(C(=N)N)c2)nc(Oc2ccccc2C(=O)O)c1F (stereo unspecified) |  | 35 | 55000
25 | CC(CCc1ccccc1)Nc1c(F)c(Oc2cccc(C(=N)N)c2)nc(Oc2ccc(OC(C)C)cc2C(=O)O)c1F (stereo unspecified) | 17 | 52 | 12000
26 | CC(CCc1ccccc1)Nc1c(F)c(Oc2cccc(C(=N)N)c2)nc(Oc2ccc(C(=O)NCCCCO)cc2C(=O)O)c1F (stereo unspecified) | 67 | 16 | 20000
27 | CC(CCc1ccccc1)Nc1c(F)c(Oc2cccc(C(=N)N)c2)nc(Oc2ccc(N(C)C)cc2C(=O)O)c1F (stereo in doubt; 19) [listing 2 of 2 here] |  | 49 | 
28 | CC(CCc1ccccc1)Nc1c(F)c(Oc2cccc(C(=N)N)c2)nc(Oc2ccc(N(C)C)cc2C(=O)O)c1F (stereo in doubt; 28) [listing 2 of 2 here] | 15 |  | 4500
29 | Cc1ccc(Oc2nc(Oc3cccc(C(=N)N)c3)c(F)c(NC(C)CCc3ccccc3)c2F)c(C(=O)O)c1 (stereo unspecified) | 20 |  | 29000
30 | CNc1ccc(Oc2nc(Oc3cccc(C(=N)N)c3)c(F)c(NC(C)CCc3ccccc3)c2F)c(C(=O)O)c1 (stereo unspecified) | 17 | 41 | 8000
31 | CC(CCc1ccccc1)Nc1c(F)c(Oc2cccc(C(=N)N)c2)nc(Oc2ccc(-c3ccccc3)cc2C(=O)O)c1F (stereo unspecified) | 23 | 112 | 17000
32 | CCN(CC)c1ccc(Oc2nc(Oc3cccc(C(=N)N)c3)c(F)c(NC(C)CCc3ccccc3)c2F)c(C(=O)O)c1 (stereo unspecified) | 16 | 83 | 9600
33 | CC(CCc1ccccc1)Nc1c(F)c(Oc2cccc(C(=N)N)c2)nc(Oc2ccc(C(=O)N[C@H](O)C(=O)O)cc2C(=O)O)c1F (stereo partly specified) | 730 |  | 

Source: ChEMBL document CHEMBL1143462, “The discovery of fluoropyridine-based inhibitors of the Factor VIIa/TF complex” (Bioorg Med Chem Lett, 2005)
